Activity calls are given as the source filed them. The calls are words filed in the database; no cut-off is given here.
What was measured:
[1] = target: Acetylcholinesterase (Homo sapiens, UniProt P22303); experiment: Inhibition of human erythrocyte AChE using acetylthiocholine iodide as substrate preincubated for 10 mins followed by substrate addition measured after 15 mins by Ellman's method
[2] = target: Cholinesterase (Homo sapiens, UniProt P06276); experiment: Inhibition of human BChE by Ellman's method
[3] = Antioxidant activity assessed as DPPH radical scavenging activity incubated for 2 hrs under dark condition by absorbance based assay; format: functional
[4] = Antioxidant activity assessed as ABTS radical scavenging activity measured after 6 mins by absorbance based assay; format: functional
[5] = Antioxidant activity assessed as trolox equivalent of ORAC radical scavenging activity incubated for 15 mins by fluorescence based assay; format: functional
[6] = tested on: HepG2; experiment: Cytotoxicity against human HepG2 cells upto 100 uM incubated for 3 hrs by MTT assay; conditions: hepg2, 3 h
[7] = tested on: SK-N-BE(2); experiment: Cytotoxicity against human SK-N-BE(2) cells upto 100 uM incubated for 3 hrs by MTT assay; format: toxicity, cell-based
[8] = tested on: SK-N-BE(2); experiment: Inhibition of t-BHP-induced ROS production in human SK-N-BE(2) cells at 100 uM incubated for 3 hrs by DCFH-DA probe based analysis; format: functional, cell-based
[9] = Solubility of compound; format: physicochemical

Sequence of Cholinesterase (P06276 whole entry): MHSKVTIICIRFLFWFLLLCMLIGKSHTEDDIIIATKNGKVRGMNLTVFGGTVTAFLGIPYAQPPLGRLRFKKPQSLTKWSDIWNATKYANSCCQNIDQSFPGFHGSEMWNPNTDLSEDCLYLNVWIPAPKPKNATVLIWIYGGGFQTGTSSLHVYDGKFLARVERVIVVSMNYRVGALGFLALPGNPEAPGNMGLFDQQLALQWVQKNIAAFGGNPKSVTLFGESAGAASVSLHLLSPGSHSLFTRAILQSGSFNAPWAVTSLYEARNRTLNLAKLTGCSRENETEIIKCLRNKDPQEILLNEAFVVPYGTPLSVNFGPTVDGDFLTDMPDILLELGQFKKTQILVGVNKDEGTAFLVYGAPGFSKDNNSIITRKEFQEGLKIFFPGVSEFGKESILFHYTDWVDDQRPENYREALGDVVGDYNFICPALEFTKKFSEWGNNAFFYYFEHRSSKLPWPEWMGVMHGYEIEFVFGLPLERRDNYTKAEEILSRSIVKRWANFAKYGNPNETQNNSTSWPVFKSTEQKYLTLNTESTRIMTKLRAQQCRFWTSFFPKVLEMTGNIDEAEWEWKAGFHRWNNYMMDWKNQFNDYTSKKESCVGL
Sequence of Acetylcholinesterase (P22303 whole entry): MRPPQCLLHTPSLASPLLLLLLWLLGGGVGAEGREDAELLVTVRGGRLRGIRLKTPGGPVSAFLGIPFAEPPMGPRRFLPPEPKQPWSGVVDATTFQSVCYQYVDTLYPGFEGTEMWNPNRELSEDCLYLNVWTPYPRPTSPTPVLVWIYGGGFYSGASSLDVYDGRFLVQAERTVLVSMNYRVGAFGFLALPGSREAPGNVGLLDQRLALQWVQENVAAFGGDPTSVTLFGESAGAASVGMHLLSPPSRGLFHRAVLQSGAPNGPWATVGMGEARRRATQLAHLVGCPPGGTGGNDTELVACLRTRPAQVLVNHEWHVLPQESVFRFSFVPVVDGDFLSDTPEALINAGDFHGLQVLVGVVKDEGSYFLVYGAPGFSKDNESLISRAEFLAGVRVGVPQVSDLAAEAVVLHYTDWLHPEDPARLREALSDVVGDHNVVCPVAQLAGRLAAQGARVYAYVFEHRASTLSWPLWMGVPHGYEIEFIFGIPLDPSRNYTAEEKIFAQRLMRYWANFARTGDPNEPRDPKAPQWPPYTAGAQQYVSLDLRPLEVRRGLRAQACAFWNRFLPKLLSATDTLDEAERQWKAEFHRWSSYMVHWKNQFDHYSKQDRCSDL

In the case of `COc1cc2c(cc1O)CC(CC1CCN(Cc3ccccc3)CC1)C2=O` (stereo unspecified), the IC50 [1] is reported as 0.773 µM, the IC50 [2] is reported as 35.8 µM and the EC50 [3] is reported as 32.5 µM. It also gave an EC50 [4] of 8.5 µM and an Activity [5] of 2.1.
With `COc1cc2c(cc1O)C(=O)C(CC1CCN(Cc3ccccc3)CC1)C2` (stereo unspecified) the IC50 [1] was 0.872 µM, the IC50 [2] was 34.5 µM and the EC50 [3] was > 400 µM. The EC50 [4] was 152 µM, the Activity [5] was 9.4 and the Activity [6] was “Non-toxic”. The Activity [7] was “Non-toxic” and the “ROS inhibition activity (qualitative)” value [8] was “inactive”.
In the case of `COc1cc2c(cc1OCCCCCC1CCSS1)C(=O)C(CC1CCN(Cc3ccccc3)CC1)C2` (stereo unspecified), the IC50 [1] is reported as 0.00763 µM, the IC50 [2] is reported as 1.48 µM and the EC50 [3] is reported as > 400 µM. For the same compound, the EC50 [4] was > 400 µM, the Activity [5] was < 0.5 and the Activity [6] was “Non-toxic”. The Activity [7] was “Non-toxic” and the “ROS inhibition activity (qualitative)” value [8] was “Active; More Pronounced Effect Than Lipoic Acid”.
Compound `Cc1c(C)c2c(c(C)c1O)CC[C@@](C)(CCC[C@H](C)CCC[C@H](C)CCCC(C)C)O2` [ALPHA-TOCOPHEROL] has an EC50 [3] of 27.5 µM, an EC50 [4] of 15.5 µM and an Activity [5] of 1. The Activity [6] was “Non-toxic”, the Activity [7] was “Non-toxic” and the “ROS inhibition activity (qualitative)” value [8] was “Active”.
With `COc1cc2c(cc1OC(=O)CCCCC1CCSS1)C(=O)C(CC1CCN(Cc3ccccc3)CC1)C2` (stereo unspecified) the IC50 [1] was 0.0278 µM, the IC50 [2] was 3.99 µM and the EC50 [3] was > 400 µM. For the same compound, the EC50 [4] was > 400 µM, the Activity [5] was < 0.5 and the Activity [6] was “Non-toxic”. For the same compound, the Activity [7] was “Non-toxic”, the “ROS inhibition activity (qualitative)” value [8] was “inactive” and the solubility [9] was “Insoluble”.
With `COc1cc2c(cc1OC)C(=O)C(CC1CCN(Cc3ccccc3)CC1)C2` (stereo unspecified) [DONEPEZIL] the EC50 [3] was > 1000 µM, the EC50 [4] was > 1000 µM and the Activity [5] was < 0.5. The Activity [6] was “Non-toxic”, the Activity [7] was “Non-toxic” and the “ROS inhibition activity (qualitative)” value [8] was “inactive”.
`O=C1c2cc(O)c(O)cc2CC1CC1CCN(Cc2ccccc2)CC1` (stereo unspecified) gave an IC50 [1] of 1.81 µM, an IC50 [2] of 246 µM and an EC50 [3] of 29.5 µM. For the same compound, the EC50 [4] was 12.3 µM, the Activity [5] was 2.2 and the Activity [6] was “Non-toxic”. The Activity [7] was “Non-toxic”, the “ROS inhibition activity (qualitative)” value [8] was “Active; Activity Comparable To Vitamin E” and the solubility [9] was “soluble”.
In the case of `COc1cc2c(cc1OCCCCCC1CCSS1)CC(CC1CCN(Cc3ccccc3)CC1)C2=O` (stereo unspecified), the IC50 [1] is reported as 0.00912 µM, the IC50 [2] is reported as 3.26 µM and the EC50 [3] is reported as > 400 µM. The EC50 [4] was > 400 µM, the Activity [5] was < 0.5 and the Activity [6] was “Non-toxic”. For the same compound, the Activity [7] was “Non-toxic”, the “ROS inhibition activity (qualitative)” value [8] was “Active; More Pronounced Effect Than Lipoic Acid” and the solubility [9] was “Insoluble”.
In the case of `O=C(O)CCCC[C@@H]1CCSS1` [THIOCTIC ACID], the Activity [6] is reported as “Non-toxic”, the Activity [7] is reported as “Non-toxic” and the “ROS inhibition activity (qualitative)” value [8] is reported as “Active”.
Compound `O=c1c(O)c(-c2ccc(O)c(O)c2)oc2cc(O)cc(O)c12` [QUERCETIN] has an EC50 [3] of 13.8 µM, an EC50 [4] of 3.4 µM and an Activity [5] of 4.

Reference: ChEMBL document CHEMBL6092143, “Synthesis and evaluation of lipoic acid - donepezil hybrids for Alzheimer's disease using a straightforward strategy” (Bioorg Med Chem Lett, 2024)
